Source: patent US12390449B2, “Substituted 2-aminobenzimidazoles analogs as antibiofilm agents” (priority 2018, dated 2025)
Entries after “also recorded” stand apart in the source; their conditions may differ. Structures can show the parent of a compound that is named as a salt. Where two headings read alike, the source gives them in different places.

Assays:
[1] = system: Salmonella typhimurium ATCC14028 Biofilms; assay: Inhibitory effect of test compounds on Salmonella typhimurium ATCC14028 biofilms (crystal violet, 96-well); type: cell-based
Protocol: Procedure to Determine the Inhibitory Effect of Test Compounds on Salmonella typhimurium ATCC14028 Biofilms: […] Stock solutions of predetermined concentrations of the test compounds were then made in 1 mL of bacterial culture. […] Sample plates were then incubated for 24 h at 30° C. After incubation, the medium was discarded from the wells and the plates were washed thoroughly with water. Plates were then stained with 110 μL of 0.1% solution of crystal violet (CV) and then incubated at ambient temperature for 30 min. Plates were washed with water again and the remaining stain was solubilized with 200 μL of 95% ethanol. A sample of 125 μL of solubilized CV stain from each well was transferred to the corresponding wells of a polystyrene microtiter dish. Biofilm inhibition was quantitated by measuring the OD540 of each well in which a negative control lane wherein no biofilm was formed served as a background and was subtracted out.

[2] = system: S. typhimurium ATCC 14028; assay: Growth curves, planktonic bacterial growth; type: cell-based; settings: at their IC50 values; hydrochloride
Protocol: Growth Curves: S. typhimurium was grown overnight in TSB, and this culture was used to inoculate fresh 1:20 TSB (OD600=0.08). Inoculated medium was aliquoted (3 mL) into culture tubes, and compound was added, with untreated inoculated medium serving as the control. Tubes were incubated at 30° C. with shaking. Samples were taken at 2, 4, 6, 8, and 24 h time points, serially diluted in fresh 1:20 TSB, and plated on nutrient agar. Plates were incubated at 37° C. overnight in stationary conditions, and the number of colonies was enumerated.

[3] = system: Galleria mellonella larvae; assay: Toxicity assay in Galleria mellonella larvae; type: in vivo; settings: 400 mg kg^−1
Protocol: FIGS. 5A-5B show representative toxicity data obtained for a representative disclosed compound. […] Briefly, S. typhimurium (JSG210) was grown in the presence of a representative disclosed compound, compound M4, present at a concentration of 10 μM for 24 hours, followed by determination of viability measured by drip plating at T=0, 2, 5, 15, 20, 24 hours. 3 biological replicates were tested. […] Briefly, a representative disclosed compound, compound M4, was injected into last left proleg of Galleria mellonella larvae at 400 mg/kg and assessed at 24-hour intervals over 5 days. The study was repeated 3 times using 10 larvae per experiment group.
Toxicity was measured by drip plating and counting cfu/mL.

[4] = Salmonella enterica, 24 h, read-out: IC50 (μM), inhibition of biofilm formation, S. typhimurium ATCC14028, 24 h at 30° C., crystal violet OD540
[5] = read-out: IC50 (μM), inhibition of biofilm formation, S. typhimurium ATCC14028, 24 h at 30° C., crystal violet OD540, hydrochloride

Row | SMILES | IC50 [1, 4] | toxicity to planktonic bacterial growth [2] | IC50 [1, 5] | IC50 ([1]; read-out: IC50 (μM), inhibition of biofilm formation, S. typhimurium ATCC14028, 24 h at 30° C., crystal violet OD540, listed as 15d, hydrochloride) | toxicity to G. mellonella [3]
1 | CCCCCOc1ccc(C(=O)Nc2ccc3c(c2)nc(N)n3CCCc2ccccc2)cc1.Cl [Compound 10a, N-(2-Amino-1-(3-phenylpropyl)-1H-benzo[d]imidazol-5-yl)-4-pentoxybenzamide hydrochloride] | 5.22 ± 0.11 µM | no toxicity; also recorded: non-toxic |  |  | 
2 | Cl.Nc1nc2cc(NC(=O)c3ccc(Cl)c(Cl)c3)ccc2n1CCCc1ccccc1 [Compound 10d, N-(2-Amino-1-(3-phenylpropyl)-1H-benzo[d]imidazol-5-yl)-3,4-dichlorobenzamide hydrochloride] | < 7 µM |  | 6.3 ± 1.29 µM | 6.3 ± 1.29 µM | no toxicity
3 | Cl.Nc1nc2cc(NC(=O)c3cc(Cl)cc(Cl)c3)ccc2n1CCCc1ccccc1 [Compound 10e, N-(2-Amino-1-(3-phenylpropyl)-1H-benzo[d]imidazol-5-yl)-3,5-dichlorobenzamide hydrochloride] | 10 to 15 µM |  | 13.3 ± 0.49 µM |  | no toxicity
4 | CCCCCCCCCCCCCC(=O)Nc1ccc2c(c1)nc(N)n2CCCc1ccccc1 [Compound 10t, N-(2-Amino-1-(3-phenylpropyl)-1H-benzo[d]imidazol-5-yhtetradecanamide hydrochloride] |  |  | > 50 µM |  | 
5 | Nc1nc2cc(C(=O)Nc3ccc(Cl)c(Cl)c3)ccc2n1CCCc1ccccc1 [Compound 15, 2-Amino-N-(3,4-dichlorophenyl)-1-(3-phenylpropyl)-1H-benzo[d]imidazole-5-carboxamide hydrochloride] | 12.6 ± 1.8 µM |  |  |  | 
6 | Cl.Nc1nc2cc(NC(=O)Nc3ccc(Cl)c(Cl)c3)ccc2n1CCCc1ccccc1 [Compound 20, 1-(2-Amino-1-(3-phenylpropyl)-1H-benzo[d]imidazol-5-yl)-3-(3,4-dichlorophenyl)urea hydrochloride] | 7.69 ± 0.25 µM | no toxicity; also recorded: non-toxic |  |  | 
